Results published in a melting point compilation (Tetko et al.; mined from patent text by program, amines drawn as free bases though some values may be those of a salt).

| SMILES | melting point |
| --- | --- |
| CCCCOC(=O)c1ccc2c(c1)C(=O)NC(C(Cl)(Cl)Cl)O2 (centres undefined) | 134 to 136 °C |
| CSC1=C(c2ccccc2)C(=O)N(Nc2ccccc2)C1=O | 86 to 88 °C |
| CCCCn1c(CO)nc2c(N)nc3ccccc3c21 | 223 to 225 °C |
| CC1(C)COC(C(C)(C)Oc2ccc(Cl)cc2)=N1 | 59 to 61 °C |
| CCNc1nc(-c2ccc(F)cc2C)c2ccc(=O)n(-c3ccccc3F)c2n1 | 176 to 177 °C |
| N#CCOc1cccc2c1c1cccc(F)c1n2Cc1ccccc1 | 134 °C |
| CC1CCCCC1OC(=O)c1cc(NC(=O)c2ccccc2)ccc1Cl (centres undefined) | 121 to 122 °C |
| COc1ccc2c(=O)c(NC(=O)C(=O)O)coc2c1 | 236 to 238 °C |
| N#CC1=C(c2ccco2)Nc2n[nH]cc2C1c1cccc2nonc12 (centres undefined) | 237 °C |
| COc1ccc(C(=CNC(=O)c2sc3ccc(C(F)(F)F)cc3c2O)c2ccc(OC)cc2)cc1 | 178 to 183 °C |
| C=CCN(C1=NCCN1C)c1c(Cl)cccc1Cl | 59 to 61 °C |
| CC1(C(=O)NCCc2cccs2)CC1 | 86 to 88 °C |
| CC(C)c1ccc(NC(=O)N2CCc3cc(S(=O)(=O)N4CCN(c5cccc(Cl)c5)CC4)ccc32)cc1 | 182 °C |
| COc1cc(-c2cc(=O)c3c(OC)c(OC)c(OC)c(OC)c3o2)ccc1OCc1ccccc1 | 109 to 111 °C |
| CC(C)(C)c1ccc(SC(CCl)S(=O)(=O)c2ccccc2)cc1 (centres undefined) | 67 to 69 °C |
| Cc1nnc2ncc(-c3ccccc3Cl)nn12 | 172 to 175 °C |
| CN(C)Cc1cc(CSCCNc2ncc([N+](=O)[O-])c(=O)[nH]2)cs1 | 150 to 153 °C |
| CCn1c(=O)sc2cc(N)ccc21 | 132 to 133 °C |
| OCc1cc2c(Oc3ccc(Cl)cc3)cncc2s1 | 90 to 91 °C |
| COc1ccc(-n2ccnc2)cc1C(O)c1c(C)cc(C)cc1C (centres undefined) | 187 to 188 °C |
| Cc1c(-c2ccccc2)oc2c(CNCCO)cccc2c1=O | 117 °C |
| COC(=O)C1c2ccccc2C(=O)N(CC(F)(F)F)C1c1cn[nH]c1 (centres undefined) | 161 to 162 °C |
| O=C1CCC(N2Cc3c(OCc4ccc(CN5CCC(F)(F)CC5)cc4)cccc3C2=O)C(=O)N1 (centres undefined) | 193 to 195 °C |
| CC(C)n1nc(-c2c(Nc3ccccn3)nc(N)nc2-c2ccccc2)ccc1=O | 163 to 164 °C |
| O=C(O)C1=Cc2cc(Cl)c(OCC(F)(F)F)cc2OC1C(F)(F)F (centres undefined) | 174 to 176 °C |

| SMILES | melting point |
| --- | --- |
| N#Cc1c(N2CCCCC2)cc(-c2ccccc2)c2c1-c1ccccc1C2=O | 166 to 168 °C |
| O=C(O)c1ccn(-c2ccc(C(=O)O)c(Cl)c2)n1 | 260 to 263 °C |
| Cc1ccc(S(=O)(=O)NCCc2ccc(C(=O)CBr)cc2)cc1 | 133 to 136 °C |
| Clc1ccc2c(c1)CCn1ccnc1C2=C1CCNCC1 | 197 °C |
| CC(C)(C)c1cc(-c2nnc(SCC(=O)O)s2)cc(C(C)(C)C)c1O | 188 °C |
| Cc1ccc(S(=O)(=O)N2[C@@H](CCC#N)CC[C@H]2c2ccc(F)cc2)cc1 (racemic) | 86 °C |
| COc1ccc(/C=C/c2ccncn2)cc1OC1CCCC1 | 83 to 84.5 °C |
| CC(C)[C@](C)(O)C(=O)O | 47 to 49 °C |
| C=C(C(=O)N1CCOCC1)c1cccc(-c2cc3c(cc2C)C(C)(C)CCC3(C)C)c1 | 158 to 159 °C |
| O=C(O)C(=O)Nc1ccc2c(=O)n3c(nc2c1)C(=Cc1ccccc1)CC3 | 198 to 200 °C |
| CCCCCC(CC(=O)Nc1cc(C(=O)O)ccc1C(C)(C)C)c1ccc(CCCC)cc1OC (centres undefined) | 136 to 138 °C |
| CC(=O)Nc1ccc(S(=O)(=O)Nc2cccc(N(C)C(C)=O)c2)cc1 | 258 to 260 °C |
| C[C@@H]1N=C(c2ccccc2Cl)c2cc([N+](=O)[O-])ccc2NC1=O | 200 to 202 °C |
| Cn1nnc(Cc2ccc3c(c2)c(C2=CCN(CCN4CCNC4=O)CC2)cn3-c2ccc(F)cc2)n1 | 129 to 131 °C |
| NC(=O)c1sc2nc(N3CCC(NCC(O)c4ccncc4)CC3)cc(C(F)(F)F)c2c1N (centres undefined) | 217 to 220 °C |
| CC(=O)c1c(Cl)n(C)c2ccccc12 | 180 °C |
| c1csc(-c2noc(COc3ccc(CCCCn4ccnc4)cc3)n2)c1 | 94 to 95 °C |
| Nc1c(Cl)cc(C(O)CNCCCCCOCCc2ccc(F)cc2)cc1Cl (centres undefined) | 75 to 76 °C |
| Nc1ncccc1OCc1c(F)cc(F)cc1F | 122 to 124 °C |
| CCOC(=O)c1cn2c3c(cc(Br)cc3c1=O)CC2(C)C | 227 to 228 °C |
| O=C1N(N(c2ccccc2)c2ccccc2)c2ccccc2C1(Cc1ccnc(F)c1)Cc1ccnc(F)c1 | 179 to 180 °C |
| S=c1[nH]c2c(n1-c1ccccn1)CCCC2 | 203 to 204 °C |
| NC(=O)CN1CC[C@H](OCc2cc(C(F)(F)F)cc(C(F)(F)F)c2)[C@H](c2ccccc2)C1 (relative stereo) | 123 to 125 °C |
| O=C(c1ccc(Nc2ccnc3cc(C(F)(F)F)ccc23)cc1)N1CCN(S(=O)(=O)c2ccc(Cl)cc2)CC1 | 234 to 236 °C |
